Data: US20210207081A1, “MATURE AIRWAY ORGANOIDS, METHODS OF MAKING AND USES THEREOF” (priority 2018, published 2021)

Tested on: H7N9/Ah virus
Type: cell-based, Influenza A virus A/Anhui/1/2013(H7N9)

NCCc1ccc(S(=O)(=O)F)cc1 [AEBSF] was tested, and the “replication of H7N9/Ah virus” value was “significantly restricted the active replication of H7N9/Ah virus”.
